Values of other authors, collected in patent publication US7879374B2, “Composition including superoxide dismutase and prickly-pear cactus for minimizing and preventing hangovers” (priority 2005, dated 2011).

Assays:
[1] = recent study of one-hundred twenty young females
[2] = rat, in vivo, po
[3] = system: hepatic metabolizing enzymes for lipids and alcohol
[4] = by speeding the use of fat during exercise
[5] = liver of rats given sesamin vs vehicle

Cc1ncc(C[n+]2csc(CCO)c2C)c(N)n1 [Thiamin]
effects on mood and cognitive functioning [1]: positive effects

c1cc2c(cc1[C@H]1OC[C@H]3[C@@H]1CO[C@@H]3c1ccc3c(c1)OCO3)OCO2 [Sesamin]
dose of sesamin detected in bile as glucuronides of catechol metabolites [2]: Over 40 % of the dose | gene expression levels of the late stage enzymes of beta-oxidation (trifunctional enzyme, acyl-CoA oxidase, bifunctional enzyme, 3-ketoacyl-CoA thiolase) [3, 5]: significantly increased | gene expression of alcohol dehydrogenase [3, 5]: not changed | gene expression of aldehyde dehydrogenase [3, 5]: about 3 fold | gene expression of liver catalase [3, 5]: not changed | transcription of the genes encoding the enzymes for fatty acid synthesis [3, 5]: decreased | gene expression of CYP2E1 ([3]; rat, in vivo): not changed

Cn1c(=O)c2c(ncn2C)n(C)c1=O [Caffeine]
increase in endurance [4]: about fifteen
